{
  "source": "ChEMBL document CHEMBL5247653",
  "about": "“Discovery of Clinical Candidate ACT-777991, a Potent CXCR3 Antagonist for Antigen-Driven and Inflammatory Pathologies” (J Med Chem, 2023)",
  "key": {"[1]": {"experiment": "Metabolic stability in dog hepatocyte assessed as M2 metabolite formation at 1 uM and measured upto 15 mins in presence of NADPH regenerating system by LC-MS/MS analysis", "type": "ADME, cell-based, Canis lupus familiaris", "settings": "hepatocytes, 0.25 h"}, "[2]": {"experiment": "Oral bioavailability in Wistar rat at 3 mg/kg", "type": "ADME, organism-based", "settings": "in vivo"}, "[3]": {"target": "C-X-C chemokine receptor type 5 (Homo sapiens) (UniProt P32302)", "sequence (P32302 whole entry)": "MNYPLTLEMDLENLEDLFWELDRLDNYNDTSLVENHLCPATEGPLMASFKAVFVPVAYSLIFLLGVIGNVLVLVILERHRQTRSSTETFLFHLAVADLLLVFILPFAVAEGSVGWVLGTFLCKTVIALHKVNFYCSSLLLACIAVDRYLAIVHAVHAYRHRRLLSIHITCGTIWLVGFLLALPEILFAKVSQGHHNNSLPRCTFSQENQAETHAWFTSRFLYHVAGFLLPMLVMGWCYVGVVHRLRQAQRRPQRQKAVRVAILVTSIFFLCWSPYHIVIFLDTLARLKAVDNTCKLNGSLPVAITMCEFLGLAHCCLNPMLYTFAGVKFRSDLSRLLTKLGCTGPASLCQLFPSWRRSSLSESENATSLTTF", "experiment": "Binding affinity to CXCR5 (unknown origin) at 10 uM by radioligand binding assay"}, "[4]": {"experiment": "Metabolic stability in dog hepatocyte assessed as M3 metabolite formation at 1 uM and measured upto 15 mins in presence of NADPH regenerating system by LC-MS/MS analysis", "type": "ADME, cell-based, Canis lupus familiaris", "settings": "hepatocytes, 0.25 h"}, "[5]": {"experiment": "Tmax in Wistar rat at 3 mg/kg,iv or 3 mg/kg, po", "type": "ADME, organism-based", "settings": "in vivo"}, "[6]": {"experiment": "Metabolic stability in human hepatocytes assessed as intrinsic clearance per 10^6 cells at 1 uM by LC-MS/MS analysis", "type": "ADME, cell-based, Hepatocyte"}, "[7]": {"experiment": "Tmax in Cynomolgus monkey at 1.0 mg/kg,iv or 1.25 mg/kg, po", "type": "ADME, organism-based, Macaca fascicularis", "settings": "in vivo"}, "[8]": {"experiment": "Drug excretion in urine of Wistar rat assessed as unchanged drug at 1 mg/kg, iv", "type": "ADME, organism-based", "settings": "read-out: Drug excretion"}, "[9]": {"experiment": "Solubility of compound in FeSSIF at 37 degreeC", "type": "ADME"}, "Mus musculus": {"tested_on": "Mus musculus", "experiment": "Antiinflammatory activity against LPS-induced DBA/1 mouse model assessed as reduction in CXCR3+ CD8+ T cells infiltration into BAL at 0.02 microg/g, po preincubated for 3 days followed by LPS stimulation for 30 mins and measured after 3 days by flow cytometry", "type": "functional, T-cell", "set-up": "scale not given: the % may be the effect or the level left", "settings": "dose 0.02 µg/g, time 6 day"}, "[10]": {"experiment": "In vivo inhibition of hERG in iv dosed dog assessed as change in PR interval", "type": "toxicity, organism-based, Canis lupus familiaris"}, "[11]": {"experiment": "Metabolic stability in dog liver microsomes assessed as M3 metabolite formation at 1 uM and measured upto 15 mins in presence of NADPH regenerating system by LC-MS/MS analysis", "type": "ADME, Canis lupus familiaris, Microsome", "settings": "0.25 h"}, "[12]": {"experiment": "Clearance in Cynomolgus monkey at 1.0 mg/kg,iv or 1.25 mg/kg, po", "type": "ADME, organism-based, Macaca fascicularis", "settings": "in vivo"}, "[13]": {"experiment": "Protein binding in mouse plasma assessed as fraction unbound at 20 ug/ml using 14C-labeled ligand by rapid equilibrium dialysis", "type": "ADME, cell-free", "settings": "at 20 µg/mL"}, "[14]": {"target": "T1, C-X-C chemokine receptor type 3 (Homo sapiens) (UniProt P49682)", "T1 sequence (whole entry)": "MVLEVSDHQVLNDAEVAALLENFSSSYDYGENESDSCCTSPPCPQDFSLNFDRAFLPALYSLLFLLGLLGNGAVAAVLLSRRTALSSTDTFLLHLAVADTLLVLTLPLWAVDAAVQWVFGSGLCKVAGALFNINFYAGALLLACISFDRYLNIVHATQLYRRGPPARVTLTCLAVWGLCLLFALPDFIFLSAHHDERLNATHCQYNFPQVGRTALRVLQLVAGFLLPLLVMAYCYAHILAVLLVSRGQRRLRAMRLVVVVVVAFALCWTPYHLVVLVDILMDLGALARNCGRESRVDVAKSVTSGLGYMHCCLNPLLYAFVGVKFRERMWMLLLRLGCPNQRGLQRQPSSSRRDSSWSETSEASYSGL", "experiment": "Binding affinity to human CXCR3 expressed in CHO-K1 cell membrane assessed as dissociation rate constant (koff) using tritium-labeled ligand by […] assay", "type": "cell membranes", "settings": "filed as antagonist"}, "[15]": {"target": "T2, Voltage-gated inwardly rectifying potassium channel KCNH2 (Homo sapiens, UniProt Q12809)", "T2 sequence (Q12809 whole entry)": "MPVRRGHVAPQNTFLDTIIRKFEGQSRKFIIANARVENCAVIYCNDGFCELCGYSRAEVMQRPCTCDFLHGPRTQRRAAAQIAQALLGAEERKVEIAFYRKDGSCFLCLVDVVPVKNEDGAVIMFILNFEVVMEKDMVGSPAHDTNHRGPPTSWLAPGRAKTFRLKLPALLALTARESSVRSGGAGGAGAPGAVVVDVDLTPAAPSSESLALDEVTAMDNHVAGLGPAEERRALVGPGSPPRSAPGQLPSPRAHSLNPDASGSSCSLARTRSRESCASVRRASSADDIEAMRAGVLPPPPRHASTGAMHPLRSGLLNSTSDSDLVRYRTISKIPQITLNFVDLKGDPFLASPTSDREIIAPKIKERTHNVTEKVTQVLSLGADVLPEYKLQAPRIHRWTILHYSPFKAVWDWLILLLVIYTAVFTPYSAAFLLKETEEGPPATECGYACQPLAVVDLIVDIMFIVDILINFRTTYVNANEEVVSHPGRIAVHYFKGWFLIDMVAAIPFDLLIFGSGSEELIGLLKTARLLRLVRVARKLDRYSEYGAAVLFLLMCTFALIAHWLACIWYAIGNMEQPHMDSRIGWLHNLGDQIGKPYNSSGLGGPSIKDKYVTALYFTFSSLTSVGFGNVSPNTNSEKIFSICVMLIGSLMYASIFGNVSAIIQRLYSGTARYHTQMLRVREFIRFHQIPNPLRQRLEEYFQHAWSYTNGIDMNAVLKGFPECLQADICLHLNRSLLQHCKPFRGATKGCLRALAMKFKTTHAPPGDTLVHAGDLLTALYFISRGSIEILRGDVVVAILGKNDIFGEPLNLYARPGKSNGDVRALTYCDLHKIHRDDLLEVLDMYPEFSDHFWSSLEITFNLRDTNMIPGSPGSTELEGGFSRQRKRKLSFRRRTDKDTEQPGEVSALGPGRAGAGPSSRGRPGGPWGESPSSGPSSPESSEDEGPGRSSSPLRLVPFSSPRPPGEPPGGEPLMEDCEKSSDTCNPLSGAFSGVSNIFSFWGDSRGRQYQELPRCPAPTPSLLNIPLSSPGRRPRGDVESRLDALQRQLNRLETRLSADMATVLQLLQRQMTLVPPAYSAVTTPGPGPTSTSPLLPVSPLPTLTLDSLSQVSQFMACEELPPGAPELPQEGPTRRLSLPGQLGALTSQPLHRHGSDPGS", "experiment": "(§1) Inhibition of human ERG K+ currents by GLP assay", "type": "toxicity"}, "hERG (KCNH2)": {"target": "hERG (KCNH2) (Homo sapiens, UniProt Q12809)", "sequence (Q12809 whole entry)": "as above", "experiment": "as §1", "type": "toxicity", "settings": "human"}, "Cytochrome P450 3A4": {"target": "Cytochrome P450 3A4 (Homo sapiens, UniProt P08684)", "sequence (P08684 whole entry)": "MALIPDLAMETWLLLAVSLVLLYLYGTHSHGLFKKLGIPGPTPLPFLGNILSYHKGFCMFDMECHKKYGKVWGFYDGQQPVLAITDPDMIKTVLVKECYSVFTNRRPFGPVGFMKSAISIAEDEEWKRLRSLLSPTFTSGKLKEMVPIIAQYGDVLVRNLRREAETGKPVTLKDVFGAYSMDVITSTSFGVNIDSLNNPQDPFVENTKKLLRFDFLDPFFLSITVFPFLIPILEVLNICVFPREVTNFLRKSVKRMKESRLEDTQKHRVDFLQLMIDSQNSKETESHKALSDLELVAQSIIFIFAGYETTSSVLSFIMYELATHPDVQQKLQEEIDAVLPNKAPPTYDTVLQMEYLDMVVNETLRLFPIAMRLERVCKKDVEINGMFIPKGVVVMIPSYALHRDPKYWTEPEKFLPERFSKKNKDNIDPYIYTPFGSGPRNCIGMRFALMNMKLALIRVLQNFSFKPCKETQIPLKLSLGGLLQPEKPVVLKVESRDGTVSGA", "experiment": "Time dependent inhibition of CYP3A4 (unknown origin)", "type": "ADME"}, "[16]": {"target": "T2, Voltage-gated inwardly rectifying potassium channel KCNH2", "experiment": "Inhibition of human ERG stably expressed in CHO cells at -80 mV holding voltage by automated QPatch electrophysiological assay", "type": "toxicity, cell-based"}, "[17]": {"experiment": "Solubility of compound in FaSSIF at 37 degreeC", "type": "ADME"}, "[18]": {"experiment": "Glutathione reactivity assessed as GSH-adduct formation by dansyl-glutathione trapping assay", "type": "physicochemical"}, "[19]": {"target": "C-C chemokine receptor type 7 (Homo sapiens) (UniProt P32248)", "sequence (P32248 whole entry)": "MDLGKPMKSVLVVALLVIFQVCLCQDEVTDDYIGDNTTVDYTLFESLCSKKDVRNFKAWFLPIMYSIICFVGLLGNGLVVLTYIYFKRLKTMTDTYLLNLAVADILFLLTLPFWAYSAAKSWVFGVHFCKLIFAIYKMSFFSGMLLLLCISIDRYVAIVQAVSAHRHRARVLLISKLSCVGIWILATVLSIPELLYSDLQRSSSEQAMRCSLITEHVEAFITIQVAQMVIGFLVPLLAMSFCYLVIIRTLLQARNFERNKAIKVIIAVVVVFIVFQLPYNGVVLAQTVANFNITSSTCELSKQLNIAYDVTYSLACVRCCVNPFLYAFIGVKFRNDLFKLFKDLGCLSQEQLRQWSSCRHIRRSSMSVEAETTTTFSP", "experiment": "Binding affinity to CCR7 (unknown origin) at 10 uM by radioligand binding assay"}, "[20]": {"experiment": "Cmax in LPS-induced DBA/1 mouse plasma at 0.02 microg/g, po bid preincubated for 3 days followed by LPS stimulation for 30 mins and measured after 72 hrs by flow cytometry", "type": "ADME, organism-based", "set-up": "time 6 day, dose 0.02 µg/g, route po", "settings": "0.02 µg/g"}, "[21]": {"experiment": "Metabolic stability in human liver microsomes assessed as intrinsic clearance at 1 uM and measured upto 15 mins in presence of NADPH regenerating system by LC-MS/MS analysis", "type": "ADME, Microsome", "settings": "read-out: CLH"}, "[22]": {"experiment": "Metabolic stability in dog hepatocyte assessed as M4 metabolite formation at 1 uM and measured upto 15 mins in presence of NADPH regenerating system by LC-MS/MS analysis", "type": "ADME, cell-based, Canis lupus familiaris", "settings": "hepatocytes, 0.25 h"}, "[23]": {"experiment": "Cmax in LPS-induced DBA/1 mouse plasma at 0.006 microg/g, po bid preincubated for 3 days followed by LPS stimulation for 30 mins and measured after 72 hrs by flow cytometry", "type": "ADME, organism-based", "set-up": "dose 0.006 µg/g, time 6 day, route po", "settings": "0.006 µg/g"}, "[24]": {"experiment": "Metabolic stability in human liver microsomes assessed as M3 metabolite formation at 1 uM and measured upto 15 mins in presence of NADPH regenerating system by LC-MS/MS analysis", "type": "ADME, Microsome", "settings": "0.25 h"}, "[25]": {"experiment": "Protein binding in rat plasma assessed as fraction unbound at 1 uM incubated for 6 hrs by rapid equilibrium dialysis based LC-MS/MS analysis", "type": "ADME, cell-free"}, "[26]": {"experiment": "Volume of distribution at steady state in Wistar rat at 3 mg/kg,iv or 3 mg/kg, po", "type": "ADME, organism-based", "settings": "in vivo, read-out: Vdss"}, "[27]": {"experiment": "Induction of CYP3A4 mRNA upregulation in human hepatocytes upto 10 uM", "type": "ADME, cell-based, Hepatocyte"}, "Cytochrome P450 2C9 [28]": {"target": "T3, Cytochrome P450 2C9 (Homo sapiens, UniProt P11712)", "T3 sequence (P11712 whole entry)": "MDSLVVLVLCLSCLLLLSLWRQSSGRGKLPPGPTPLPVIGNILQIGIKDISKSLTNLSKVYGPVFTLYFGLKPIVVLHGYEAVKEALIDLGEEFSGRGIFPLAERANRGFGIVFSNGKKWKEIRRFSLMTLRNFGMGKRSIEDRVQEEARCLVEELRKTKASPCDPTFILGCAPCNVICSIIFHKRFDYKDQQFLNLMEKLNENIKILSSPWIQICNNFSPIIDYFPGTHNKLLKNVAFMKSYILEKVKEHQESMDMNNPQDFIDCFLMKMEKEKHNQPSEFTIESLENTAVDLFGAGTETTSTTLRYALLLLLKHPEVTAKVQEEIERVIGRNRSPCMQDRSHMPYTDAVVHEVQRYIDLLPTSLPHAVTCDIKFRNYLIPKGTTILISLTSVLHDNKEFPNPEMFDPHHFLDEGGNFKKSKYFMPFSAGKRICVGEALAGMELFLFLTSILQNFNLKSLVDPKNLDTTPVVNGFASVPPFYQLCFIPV", "experiment": "Competitive inhibition of CYP2C9 (unknown origin)", "type": "ADME"}, "[29]": {"experiment": "Cmax in LPS-induced DBA/1 mouse plasma at 0.06 microg/g, po bid preincubated for 3 days followed by LPS stimulation for 30 mins and measured after 72 hrs by flow cytometry", "type": "ADME, organism-based", "set-up": "time 6 day, dose 0.06 µg/g, route po", "settings": "0.06 µg/g"}, "[30]": {"target": "C3a anaphylatoxin chemotactic receptor (Homo sapiens) (UniProt Q16581)", "sequence (Q16581 whole entry)": "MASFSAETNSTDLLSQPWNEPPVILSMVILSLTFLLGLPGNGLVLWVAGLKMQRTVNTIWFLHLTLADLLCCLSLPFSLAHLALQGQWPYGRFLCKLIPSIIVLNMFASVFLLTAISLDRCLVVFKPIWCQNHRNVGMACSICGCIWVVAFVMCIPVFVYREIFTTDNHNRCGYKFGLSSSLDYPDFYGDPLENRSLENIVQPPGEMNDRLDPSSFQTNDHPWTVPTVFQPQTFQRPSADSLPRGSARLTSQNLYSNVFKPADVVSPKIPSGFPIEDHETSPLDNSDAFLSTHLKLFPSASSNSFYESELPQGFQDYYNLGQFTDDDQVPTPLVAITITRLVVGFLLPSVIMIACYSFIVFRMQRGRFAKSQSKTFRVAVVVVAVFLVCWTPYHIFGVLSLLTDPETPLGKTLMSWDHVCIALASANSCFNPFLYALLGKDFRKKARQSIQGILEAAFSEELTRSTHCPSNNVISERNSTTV", "experiment": "Binding affinity to C3aR1 (unknown origin) at 10 uM by radioligand binding assay"}, "Cytochrome P450 2C9 [31]": {"target": "T3, Cytochrome P450 2C9", "experiment": "Time dependent inhibition of CYP2C9 (unknown origin)", "type": "ADME"}, "[32]": {"target": "C-X-C chemokine receptor type 3 (Rattus norvegicus, UniProt Q9JII9)", "sequence (Q9JII9 whole entry)": "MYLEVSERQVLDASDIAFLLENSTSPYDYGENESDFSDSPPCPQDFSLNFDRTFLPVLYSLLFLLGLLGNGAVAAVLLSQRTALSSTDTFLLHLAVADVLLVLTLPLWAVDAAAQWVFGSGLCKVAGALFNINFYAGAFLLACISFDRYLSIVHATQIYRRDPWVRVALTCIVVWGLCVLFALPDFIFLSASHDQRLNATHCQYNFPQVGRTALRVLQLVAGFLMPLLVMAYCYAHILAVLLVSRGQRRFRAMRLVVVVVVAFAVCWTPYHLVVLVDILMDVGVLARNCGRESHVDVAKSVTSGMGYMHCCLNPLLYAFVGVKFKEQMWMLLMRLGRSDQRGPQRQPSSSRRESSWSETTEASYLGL", "experiment": "Antagonist activity at CXCR3 in Wistar rat whole blood assessed as receptor internalization incubated for 30 mins in presence of CXCL10 by flow cytometric analysis", "type": "tissue-based"}, "[33]": {"experiment": "Total clearance in Beagle dog plasma at 1 mg/kg, iv", "type": "ADME, organism-based, Canis lupus familiaris"}, "[34]": {"experiment": "Tmax in Beagle dog at 2.5 mg/kg,iv or 2.5 mg/kg, po", "type": "ADME, organism-based, Canis lupus familiaris", "settings": "in vivo"}, "Cytochrome P450 2D6": {"target": "Cytochrome P450 2D6 (Homo sapiens, UniProt P10635)", "experiment": "Competitive inhibition of CYP2D6 (unknown origin)", "type": "ADME"}},
  "note": "The source made the active and inactive calls. No cut-off for these calls is given here.",
  "data": [
    {"smiles": "Cc1ncn(CC(=O)N2CCN(c3sc(C(F)(F)F)nc3-c3cnc(C(F)(F)F)nc3)C[C@H]2CCO)n1", "values": [
      {"measurement": "Stability", "setting": "[1]", "result": "Unstable"},
      {"measurement": "bioavailability", "setting": "[2]", "result": 80, "unit": "%"},
      {"measurement": "Activity", "setting": "[3]", "result": "inactive"},
      {"measurement": "Stability", "setting": "[4]", "result": "Unstable"},
      {"measurement": "Tmax", "setting": "[5]", "result": 30, "unit": "min"},
      {"measurement": "CLH", "setting": "[6]", "result": "< 2", "unit": "µL/min/mg"},
      {"measurement": "Tmax", "setting": "[7]", "result": 90, "unit": "min"},
      {"measurement": "dose excreted", "setting": "[8]", "result": 4.4, "unit": "%"},
      {"measurement": "solubility", "setting": "[9]", "result": 1250, "unit": "µg/mL"},
      {"measurement": "Activity", "setting": "Mus musculus", "result": 70, "unit": "%"},
      {"measurement": "inhibition (INH)", "setting": "[10]", "result": "Non-Toxic"},
      {"measurement": "Stability", "setting": "[11]", "result": "Unstable"},
      {"measurement": "clearance", "setting": "[12]", "result": 5.3, "unit": "mL/min/kg"},
      {"measurement": "fraction unbound at 20 ug/ml", "setting": "[13]", "result": 0.1},
      {"measurement": "Kdiss", "setting": "[14]", "result": 0.03, "unit": "s⁻¹"},
      {"measurement": "IC50", "setting": "[15]", "result": 15.4, "unit": "µM"},
      {"measurement": "IC20", "setting": "hERG (KCNH2)", "result": 3, "unit": "µg/mL"},
      {"measurement": "IC50", "setting": "Cytochrome P450 3A4", "result": "> 50", "unit": "µM"},
      {"measurement": "IC50", "setting": "[16]", "result": 26, "unit": "µM"},
      {"measurement": "solubility", "setting": "[17]", "result": 718, "unit": "µg/mL"},
      {"measurement": "Activity", "setting": "[18]", "result": "Not Active"},
      {"measurement": "Activity", "setting": "[19]", "result": "inactive"},
      {"measurement": "Cmax", "setting": "[20]", "result": 173, "unit": "ng/mL"},
      {"measurement": "microsomal CLint at 1 µM", "setting": "[21]", "result": "< 10", "unit": "µL/min/mg"},
      {"measurement": "Stability", "setting": "[22]", "result": "Unstable"},
      {"measurement": "Cmax", "setting": "[23]", "result": 42, "unit": "ng/mL"},
      {"measurement": "Stability", "setting": "[24]", "result": "Unstable"},
      {"measurement": "fraction unbound at 6 h, 1 µM", "setting": "[25]", "result": 0.09},
      {"measurement": "Vd", "setting": "[26]", "result": 2.7, "unit": "L/kg"},
      {"measurement": "Activity", "setting": "[27]", "result": "Not Active"},
      {"measurement": "IC50", "setting": "Cytochrome P450 2C9 [28]", "result": "> 50", "unit": "µM"},
      {"measurement": "Cmax", "setting": "[29]", "result": 559, "unit": "ng/mL"},
      {"measurement": "Activity", "setting": "[30]", "result": "inactive"},
      {"measurement": "IC50", "setting": "Cytochrome P450 2C9 [31]", "result": "> 50", "unit": "µM"},
      {"measurement": "IC50", "setting": "[32]", "result": 0.291, "unit": "µM"},
      {"measurement": "clearance", "setting": "[33]", "result": 5, "unit": "mL/min/kg"},
      {"measurement": "Tmax", "setting": "[34]", "result": 24, "unit": "min"},
      {"measurement": "IC50", "setting": "Cytochrome P450 2D6", "result": "> 50", "unit": "µM"}
    ]}
  ]
}
